Assay results published in patent publication US20250302394A1, “QUANTITATIVE MAGNETIC RESONANCE IMAGING AND TUMOR FORECASTING” (priority 2021, published 2025).
“And” between values parts separate entries of the source, which are not always exact repeats. Identical values can stand only once. Like-named read-outs stand apart in the source and are kept apart here.

Tested on: TNBC

| Structure (SMILES) | median calibrated efficacy rate α of the drug | median calibrated efficacy rate α of the drug (good-response patient (100% shrinkage of tumor volume at completion of A/C), Framework 1) [day⁻¹] | median calibrated efficacy rate α of the drug (poor-response patient (33% shrinkage of tumor volume at completion of A/C), Framework 1) [day⁻¹] |
| --- | --- | --- | --- |
| O=P1(N(CCCl)CCCl)NCCCO1 (stereo not drawn) [cyclophosphamide] | 0.60 day⁻¹ and 0.34 day⁻¹ | – | – |
| COc1cccc2c1C(=O)c1c(O)c3c(c(O)c1C2=O)C[C@@](O)(C(=O)CO)C[C@@H]3O[C@H]1C[C@H](N)[C@H](O)[C@H](C)O1 [doxorubicin] | – | 0.47 | 0.24 |
